Active and inactive are the calls of the source. The rule behind the calls is not given here.

The series has as its system GENE-TOX genotoxicity assays, various organisms and cells. Briefly: GENE-TOX mutagenicity studies. Particulars: for call: Assay Type: In vivo carcinogenicity studies.
Setting [1] is: Species/Cell Type: Neurospora crassa, Assay Type: Aneuploidy, chromosome aberrations, Assay Code: NEN-, Evaluation Type: Evaluation A (Pre-1980).
[2] abbreviates: Species/Cell Type: Salmonella typhimurium (one or more of the five standard strains: TA98, TA100, TA1535, TA1537, and TA1538), Assay Type: Histidine reverse gene mutation, Ames assay, Assay Code: SAL+*, Activation: With metabolic activation, Evaluation Type: Evaluation A (Pre-1980).
Setting [3] is: Species/Cell Type: Human, Sex: Male, Assay Type: Sperm morphology, Assay Code: SPHT, Evaluation Type: Evaluation A (Pre-1980).
The mark [4] stands for this setting: Species/Cell Type: Mammalian polychromatic erythrocytes, Assay Type: Micronucleus test, chromosome aberrations, Assay Code: MNT+, Evaluation Type: Evaluation B (Post-1980).
The mark [5] stands for this setting: Species/Cell Type: Plant, Assay Type: Micronucleus test, chromosome aberrations, Assay Code: MNP+, Evaluation Type: Evaluation A (Pre-1980).
Where [6] appears, read: Species/Cell Type: Bacillus subtilis (H17 vs M45), Assay Type: Rec-assay, spot test, DNA effects (bacterial DNA repair), Assay Code: REWT, Evaluation Type: Evaluation A (Pre-1980).
[7] abbreviates: Species/Cell Type: Salmonella typhimurium (one or more of the five standard strains: TA98, TA100, TA1535, TA1537, and TA1538), Assay Type: Histidine reverse gene mutation, Ames assay, Assay Code: SALT, Evaluation Type: Evaluation A (Pre-1980).
[8] abbreviates: Species/Cell Type: Salmonella typhimurium (one or more of the five standard strains: TA98, TA100, TA1535, TA1537, and TA1538), Assay Type: Histidine reverse gene mutation, Ames assay, Assay Code: SAL-, Evaluation Type: Evaluation A (Pre-1980).

Take `Cc1ccc(N)cc1N`: the mutagenic call is “active; positive” (Species/Cell Type: Drosophila melanogaster, Assay Type: Sex-linked recessive lethal gene mutation, Assay Code: SRL+, Evaluation Type: Evaluation A (Pre-1980)); “inactive; negative” (Species/Cell Type: Mouse, Sex: Male, Assay Type: Sperm morphology, Assay Code: SPI-, Evaluation Type: Evaluation A (Pre-1980)); “inactive; negative” under setting [1]; “active; positive” (Species/Cell Type: Nonhuman, Assay Type: Sister-chromatid exchange (SCE) in vivo, Assay Code: SC3+, Evaluation Type: Evaluation B (Post-1980)); “active; positive” under setting [2]; “no conclusion” (Species/Cell Type: Syrian hamster embryo (SHE) cells, Assay Type: Cell transformation, clonal assay, Assay Code: CTCT, Evaluation Type: Evaluation A (Pre-1980)). The call (Species/Cell Type: Nonhuman, Assay Code: CCG+, Evaluation Type: Evaluation A (Pre-1980)) was “active; positive”.
As for `CC(C)C[C@H](NC(=O)CNC(=O)[C@H](Cc1ccc(O)cc1)NC(=O)[C@H](CO)NC(=O)[C@H](Cc1c[nH]c2ccccc12)NC(=O)[C@H](Cc1cnc[nH]1)NC(=O)[C@@H]1CCC(=O)N1)C(=O)N[C@@H](CCCN=C(N)N)C(=O)N1CCC[C@H]1C(=O)NCC(N)=O`, the mutagenic call under setting [3] was “no conclusion”.
With `[CH3][Hg+]`, the mutagenic call (Species/Cell Type: Allium cepa, Assay Type: Chromosome aberrations, Assay Code: ALC+D, Dose Response: With dose response, Evaluation Type: Evaluation A (Pre-1980)) was “active; positive”; the mutagenic call (Species/Cell Type: Drosophila melanogaster, Assay Type: Aneuploidy, sex chromosome gain, chromosome aberrations, Assay Code: DAG+M+F, Evaluation Type: Evaluation A (Pre-1980)) was “active; positive”; the mutagenic call (Species/Cell Type: Drosophila melanogaster, Assay Type: Aneuploidy, whole sex chromosome loss, chromosome aberrations, Assay Code: DAC+M+F, Evaluation Type: Evaluation A (Pre-1980)) is “active; positive”.
As for `Cc1c2ccccc2c(CCl)c2ccc3ccccc3c12`, the mutagenic call (Species/Cell Type: Salmonella typhimurium (one or more of the five standard strains: TA98, TA100, TA1535, TA1537, and TA1538), Assay Type: Histidine reverse gene mutation, Ames assay, Assay Code: SAL+, Evaluation Type: Evaluation A (Pre-1980)) was “active; positive”.
With `COc1cc2c(c(OC)c1OC)-c1ccc(OC)c(=O)cc1[C@@H](NC(C)=O)CC2`, the mutagenic call runs as follows: (Species/Cell Type: Drosophila melanogaster, Assay Type: Aneuploidy, sex chromosome gain, chromosome aberrations, Assay Code: DAG+F, Evaluation Type: Evaluation A (Pre-1980)) “active; positive”; (Species/Cell Type: Drosophila melanogaster, Assay Type: Aneuploidy, whole sex chromosome loss, chromosome aberrations, Assay Code: DAC+F, Evaluation Type: Evaluation A (Pre-1980)) “active; positive”; (Species/Cell Type: Glycine max (soybean), Assay Type: Gene mutation, Assay Code: GLM+, Evaluation Type: Evaluation A (Pre-1980)) “active; positive”; under setting [3], “no conclusion”; (Species/Cell Type: Mammalian cell culture, nonhuman, Assay Type: Micronucleus test in vitro, chromosome aberrations, Assay Code: MN&+, Evaluation Type: Evaluation A (Pre-1980)) “active; positive”; under setting [4], “active; positive”. Besides, the mutagenic call was “no conclusion” (Species/Cell Type: Mammalian polychromatic erythrocytes, Assay Type: Micronucleus test, chromosome aberrations, Assay Code: MNTT, Evaluation Type: Evaluation A (Pre-1980)); “active; positive” (Species/Cell Type: Mouse, Sex: Male, Assay Type: Sperm morphology, Assay Code: SPI+, Evaluation Type: Evaluation A (Pre-1980)); “inactive; negative” under setting [1]; “inactive; negative” (Species/Cell Type: Nonhuman, Assay Type: Sister-chromatid exchange (SCE) in vivo, Assay Code: SC3-, Evaluation Type: Evaluation B (Post-1980)); “active; positive” under setting [5].
For `Cc1cccc2c1ccc1c3ccccc3ccc21`, the mutagenic call under setting [2] was “active; positive”.
As for `COc1ccc([C@@H]2CC(=O)c3c(O)cc(O[C@@H]4O[C@H](CO)[C@@H](O)[C@H](O)[C@H]4O[C@@H]4O[C@@H](C)[C@H](O)[C@@H](O)[C@H]4O)cc3O2)cc1O`, for the setting “Species/Cell Type: Salmonella typhimurium, Assay Type: Forward and reverse gene mutation, body fluid assay, Assay Code: BFU-, Evaluation Type: Evaluation A (Pre-1980)”, the mutagenic call was “inactive; negative”.
In the case of `CNC(=O)/C=C(\C)OP(=O)(OC)OC`, the mutagenic call was “no conclusion” under setting [6]; “inactive; negative” (Species/Cell Type: Drosophila melanogaster, Assay Type: Sex-linked recessive lethal gene mutation, Assay Code: SRL-, Evaluation Type: Evaluation A (Pre-1980)); “inactive; negative” (Species/Cell Type: Escherichia coli WP2 UVRA, Assay Type: Tryptophan reverse gene mutation, Assay Code: WPU-*, Activation: With metabolic activation, Evaluation Type: Evaluation A (Pre-1980)); “no conclusion” (Species/Cell Type: Escherichia coli polA (W3119 vs P3478), Assay Type: Rec-assay, DNA effects (bacterial DNA repair), Assay Code: RE1T, Evaluation Type: Evaluation A (Pre-1980)); “active; positive” (Species/Cell Type: Human diploid fibroblasts, Assay Type: Unscheduled DNA synthesis (UDS) in vitro, DNA effects, Assay Code: UDH+, Evaluation Type: Evaluation A (Pre-1980)); “active; positive” (Species/Cell Type: Human, Assay Type: Sister-chromatid exchange (SCE) in vitro, Assay Code: SC1+D, Dose Response: With dose response, Evaluation Type: Evaluation B (Post-1980)). Further, the mutagenic call runs as follows: under setting [4], “active; positive”; (Species/Cell Type: Saccharomyces cerevisiae, Assay Type: Mitotic recombination or gene conversion, Assay Code: YEH+, Evaluation Type: Evaluation A (Pre-1980)) “active; positive”; under setting [7], “no conclusion”.
As to `CC(C)(C)OO`, the mutagenic call by setting is: (Species/Cell Type: Neurospora crassa, Assay Type: Reverse gene mutation, Assay Code: NER+, Evaluation Type: Evaluation A (Pre-1980)) “active; positive”; (Species/Cell Type: Saccharomyces cerevisiae, Assay Type: Mitotic recombination or gene conversion, Assay Code: YEC+, Evaluation Type: Evaluation A (Pre-1980)) “active; positive”; (Species/Cell Type: Vicia faba, Assay Type: Chromosome aberrations, Assay Code: VIC+, Evaluation Type: Evaluation A (Pre-1980)) “active; positive”.
With `O=S(=O)(O)c1ccc(N=Nc2ccc(O)c3ccccc23)cc1`, the mutagenic call under setting [6] is “no conclusion”; the mutagenic call (Species/Cell Type: Bacillus subtilis (H17 vs M45T), Assay Type: Rec-assay, spot test, DNA effects (bacterial DNA repair), Assay Code: REXT, Evaluation Type: Evaluation A (Pre-1980)) is “no conclusion”; the mutagenic call under setting [8] was “inactive; negative”.
Regarding `Nc1ncnc2c1ncn2[C@@H]1O[C@H](CO[C@H]2[C@H](O)[C@@H](O)[C@@H](O[C@@H](C(=O)O)[C@H](O)[C@H](OP(=O)(O)O)[C@H](O)C(=O)O)O[C@@H]2CO)[C@@H](O)[C@H]1O`, the mutagenic call under setting [5] was “active; positive”.
Turning to `Cc1ccc2cccc(O)c2n1`, the mutagenic call under setting [7] is given as “no conclusion”.
With `ClC1=C(Cl)[C@]2(Cl)[C@H]3[C@H]([C@@H]4C=C[C@H]3C4)[C@@]1(Cl)C2(Cl)Cl`, the mutagenic call runs as follows: (Species/Cell Type: Drosophila melanogaster, Assay Type: Sex-linked recessive lethal gene mutation, Assay Code: SRLT, Evaluation Type: Evaluation A (Pre-1980)) “no conclusion”; (Species/Cell Type: Mammalian polychromatic erythrocytes, Assay Type: Micronucleus test, chromosome aberrations, Assay Code: MNTT, Evaluation Type: Evaluation B (Post-1980)) “no conclusion”; (Species/Cell Type: Saccharomyces cerevisiae, Assay Type: Mitotic recombination or gene conversion, Assay Code: YEH-, Evaluation Type: Evaluation A (Pre-1980)) “inactive; negative”; under setting [8], “inactive; negative”. Also, the call (Species/Cell Type: Nonhuman, Assay Code: CCG+L, Evaluation Type: Evaluation A (Pre-1980)) is “active; positive”.
With `CCCCCC[C@@H](O)C1C2=C(CC([C@H](O)C3CCCC(=O)O3)CC3=C(C(=O)OC3=O)[C@@H]1O)C(=O)OC2=O` (stereo partly specified), the mutagenic call (Species/Cell Type: Rodents, Sex: Male, Assay Type: Dominant lethal test, Assay Code: DLT-, Evaluation Type: Evaluation A (Pre-1980)) is “inactive; negative”.
As for `CCN(CCO)CCCNc1c2ccc(Cl)cc2nc2ccc(OC)cc12`, the mutagenic call (Species/Cell Type: Chinese hamster ovary (CHO) cells, Assay Type: Forward gene mutation at the HPRT locus, Assay Code: CHO-, Evaluation Type: Evaluation A (Pre-1980)) is “inactive; negative” and the mutagenic call (Species/Cell Type: Chinese hamster ovary (CHO) cells, Assay Type: Forward gene mutation at the HPRT locus, Assay Code: CHOT, Evaluation Type: Evaluation B (Post-1980)) is given as “no conclusion”.
In the case of `O=[N+]([O-])O.[Cr]`, the mutagenic call under setting [7] is “no conclusion”.
